Several values for one entry are separate records, joined by “and”; a condition that tells them apart may be missing. Identical values can stand only once.
Columns and labels:
Assay type in all cases: in vivo
[1] = test system: 8692 (wild type control corn line); experiment: Greenhouse spray test of corn lines with imidazolinone herbicides, injury score; conditions: for Score, individual plants (0 dead plants, 5 healthy plants with no injury): 16 days after treatment; for M.S.: score 0 (dead) to 5 (healthy), 16 days
[2] = test system: 8692IT (heterozygous XI12 imi-tolerant corn line); experiment: as above; conditions: for Score, individual plants (0 dead plants, 5 healthy plants with no injury): 16 days after treatment; for M.S.: score 0 (dead) to 5 (healthy), 16 days
[3] = test system: transgenic corn hybrid MAa-7; experiment: as above; conditions: MAa-7; for Score, individual plants (0 dead plants, 5 healthy plants with no injury): 16 days after treatment; for M.S.: score 0 (dead) to 5 (healthy), 16 days
Text: (§1) Grow one corn plant per pot (5×5 inch) in a 3×5 flat till three- to four-leaf stage (about 9 to 13 days depending on the weather). On the day of spraying, water the plants well and let excess water drip out. Spray plants on a belt-sprayer with the imidazolinone herbicides at desired rates. […] When temperature was too high, base water plants to prevent wilting. Closely observe the plants for the next two to three weeks. Symptoms of herbicide injury will be visible three days after spraying and susceptible plants will die within two to three weeks depending on temperature.
(§2) The plants were rated on a scale of 0-5 with 0 for dead plants and 5 for healthy plants with no or minimum injury.
(§3) Two transgenic hybrids BAa-4 and MAa-7 lines (see FIG. 5 for their pedigree), a non-transformed control line B×A (B73×A188), 8962IT (heterozygous XI12 imi-tolerant corn line), 8962 (wild type control) and 3395IR (homozygous XA17 imi-resistant corn line) (8962IT and 8962 were from ICI, now Garst Seed Company, Slater, Iowa 50244, and 3395IR was from Pioneer Hi-Bred International Inc, Iowa 50306-3453). Plants were sprayed with 4, 8, 16 or 20×PURSUIT® imazethapyr, ARSENAL® imazapyr, CADRE® imazameth or RAPTOR® imazamox. Plants were scored 0 to 5 (with 0 being dead plants, 5 being healthy plants with no injury) individually 16 days after herbicide treatments. […] For the four tested imidazolinones, transgenic plants could tolerate higher rates of ARSENAL® imazapyr, PURSUIT® imazethapyr, than CADRE® imazameth and RAPTOR® imazamox.

[4] = test system: non-transformed control corn line BxA (B73×A188); experiment: as above; conditions: for Score, individual plants (0 dead plants, 5 healthy plants with no injury): 16 days after treatment; for M.S.: score 0 (dead) to 5 (healthy), 16 days
Text: as §1, §2, §3

[5] = test system: transgenic corn hybrid BAa-4; experiment: as above; conditions: BAa-4; for Score, individual plants (0 dead plants, 5 healthy plants with no injury): 16 days after treatment; for M.S.: score 0 (dead) to 5 (healthy), 16 days
Text: as §1, §2, §3

[6] = test system: 3395IR (homozygous XA17 imi-resistant corn line); experiment: as above; conditions: for Score, individual plants (0 dead plants, 5 healthy plants with no injury): 16 days after treatment; for M.S.: score 0 (dead) to 5 (healthy), 16 days
Text: as §1, §2, §3

[7] = test system: rice plants (transgenic Lines 26 and 29; Nt control); experiment: Greenhouse herbicide tests on rice; conditions: for average seed set in two transgenic lines: PURSUIT, RAPTOR, CADRE, SCEPTER at all rates tested, ARSENAL 1 to 2×; for rate at which growth of transgenic plants was slightly affected: post-emergence, fresh weight and visual observation
Text: We evaluated the response of transgenic rice to PURSUIT® imazethapyr application in the greenhouse. In this experiment, we included 2 transgenic lines and their untransformed counterpart (Nt). The transgenic lines, designated as Line 26 and 29, were T3 progeny derived from previously identified homozygous resistant transgenic plants containing the maize XI12 ahas2 gene driven by its own promoter. All seeds were pre-germinated in water for 2-3 days then grown in a planting mixture consisting of 1:1 soil and MetroMix 360 (The Scotts Company, Marysville, Ohio 43040) in 6-inch pots (2 seeds per pot) in the greenhouse and sprayed with PURSUIT® imazethapyr at 63, 125, or 250 g ai/ha. For post-emergence application, the plants were sprayed 15 days after seeding, at which time most plants had 3 leaves. For pre-emergence treatment, PURSUIT® imazethapyr was sprayed one day after seeding. Each treatment contained 20 plants and, and 3 replicates per treatment. One set of materials was not sprayed and used as control. The plants were grown in the greenhouse and harvested at maturity. The amount of PURSUIT® imazethapyr applied in this study (63, 125, or 250 g ai/ha) was close to 1, 2 or 4× field application rate for imi-resistant corn (refer to Table 3) since PURSUIT® imazethapyr is not currently labeled for use in rice fields. A custom designed belt sprayer was operated as described (Newhouse et al. 1992) for all herbicide applications. Five plants from each treatment were randomly chosen and individually measured for morphological traits. Means and standard deviations were calculated over three replications. Plant heights were measured from the base of the plant to the tip of the flag leaf 93 days after herbicide applications (DAH) and number of tillers per plant were counted 102-103 DAH. Data on number of panicles per plant and yield were collected after plants were harvested.
A total of 9 herbicides, 5 imidazolinones, two rice herbicides and ACCENT® (nicosulfuron) and CLASSIC® (clorimuron-ethyl) were applied in this study. Materials and methods were basically the same as described above, except that instead of 6″ pots, flats with 18 (3″×3″ per cell) cells were used, and 10-12 seeds were planted to one 3″×3″ cell. Ten plants were maintained in one cell in the post-emergence application. Each herbicide was sprayed at 4 different rates, 1, 2, 4, and 6×, as either pre or post-emergence applications with three replications per treatment. The name and amount of herbicide applied in this experiment and information relevant to their commercial applications are listed in Table 3. For simplicity and convenience, the lowest concentration used is referred as 1× rate, 2, 4 and 6× rates can be calculated as multiples of 1×.
To monitor plant response to various herbicides, data on fresh weight was collected. For pre-emergence applications, all plants from one cell were harvested 32 days after spraying (36-day old plants) and weighed. Twenty-nine days after herbicide application, 5 plants (44-day old plants) from each cell in the post-emergence application, were cut and weighed individually. Mean fresh weight for each treatment was calculated over three replications. The remaining 5 plants were grown in the greenhouse to maturity at which time, panicles of 3 plants were collected, and number of filled seeds and number of total kernels were counted to determine percentage of seed set.

[8] = 4×: PURSUIT 250, RAPTOR 160, ARSENAL 96, CADRE 400 g/ha
[9] = 8×: PURSUIT 500, RAPTOR 320, ARSENAL 192, CADRE 800 g/ha
[10] = 16×: RAPTOR 640 g/ha, ARSENAL 384 g/ha, CADRE 1.6 kg/ha

SMILES	Score, individual plants (0 dead plants, 5 healthy plants with no injury) [1, 8]	M.S. [1, 8]	Score, individual plants (0 dead plants, 5 healthy plants with no injury) [1, 9]	M.S. [1, 9]	Score, individual plants (0 dead plants, 5 healthy plants with no injury) [1, 10]	M.S. [1, 10]	Score, individual plants (0 dead plants, 5 healthy plants with no injury) [2, 8]	M.S. [2, 8]	Score, individual plants (0 dead plants, 5 healthy plants with no injury) [2, 9]	M.S. [2, 9]	Score, individual plants (0 dead plants, 5 healthy plants with no injury) [2, 10]	M.S. [2, 10]	Score, individual plants (0 dead plants, 5 healthy plants with no injury) [3, 8]	M.S. [3, 8]	Score, individual plants (0 dead plants, 5 healthy plants with no injury) [3, 9]	M.S. [3, 9]	Score, individual plants (0 dead plants, 5 healthy plants with no injury) [3, 10]	M.S. [3, 10]	Score, individual plants (0 dead plants, 5 healthy plants with no injury) [4, 8]	M.S. [4, 8]	further results
CC(C)C1(C)N=C(c2ncccc2C(=O)O)NC1=O (stereo not drawn) [ARSENAL ®, imazapyr]	0	0	0	0	0	0	4	4	4 (2×) and 3 (3×)	3.4	4 and 3 (4×)	3.2	5	5	5	5	5 (4×) and 4	4.8	0	0	Score, individual plants (0 dead plants, 5 healthy plants with no injury) [4, 9]: 0; M.S. [4, 9]: 0; Score, individual plants (0 dead plants, 5 healthy plants with no injury) [4, 10]: 0; M.S. [4, 10]: 0; Score, individual plants (0 dead plants, 5 healthy plants with no injury) [5, 8]: 5; M.S. [5, 8]: 5; Score, individual plants (0 dead plants, 5 healthy plants with no injury) [5, 9]: 5; M.S. [5, 9]: 5; Score, individual plants (0 dead plants, 5 healthy plants with no injury) [5, 10]: 5 (2×) and 4 (3×); M.S. [5, 10]: 4.4; Score, individual plants (0 dead plants, 5 healthy plants with no injury) [6, 8]: 5; M.S. [6, 8]: 5; Score, individual plants (0 dead plants, 5 healthy plants with no injury) [6, 9]: 5; M.S. [6, 9]: 5; Score, individual plants (0 dead plants, 5 healthy plants with no injury) [6, 10]: 4 and 5 (4×); M.S. [6, 10]: 4.8; seed set in the two transgenic lines ([7]; 4× (96 g ai/ha) and 6× (144 g ai/ha)): ≤ 20%; average seed set in two transgenic lines [7]: about 85%; effect on seed set of transgenic plants ([7]; higher rates): severe sterility; rate at which growth of transgenic plants was slightly affected [7]: 6 ×
Cc1cnc(C2=NC(=O)C(C)(C(C)C)N2)c(C(=O)O)c1 (stereo not drawn) [CADRE ®, imazameth]	0	0	0	0	0	0	4 (3×) and 5 (2×)	4.4	3 (3×) and 2 (2×)	2.6	1 (2×) and 2 (3×)	1.6	5 (4×) and 4	4.8	2 (2×) and 4 (2×) and 3	3	0 (2×) and 1 (3×)	0.6	0	0	Score, individual plants (0 dead plants, 5 healthy plants with no injury) [4, 9]: 0; M.S. [4, 9]: 0; Score, individual plants (0 dead plants, 5 healthy plants with no injury) [4, 10]: 0; M.S. [4, 10]: 0; Score, individual plants (0 dead plants, 5 healthy plants with no injury) [5, 8]: 5; M.S. [5, 8]: 5; Score, individual plants (0 dead plants, 5 healthy plants with no injury) [5, 9]: 3 (2×) and 2 (3×); M.S. [5, 9]: 2.4; Score, individual plants (0 dead plants, 5 healthy plants with no injury) [5, 10]: 3 and 1 and 0 (3×); M.S. [5, 10]: 0.8; Score, individual plants (0 dead plants, 5 healthy plants with no injury) [6, 8]: 5; M.S. [6, 8]: 5; Score, individual plants (0 dead plants, 5 healthy plants with no injury) [6, 9]: 5; M.S. [6, 9]: 5; Score, individual plants (0 dead plants, 5 healthy plants with no injury) [6, 10]: 4 (2×) and 5 (3×); M.S. [6, 10]: 4.6; average seed set in two transgenic lines [7]: about 85%; rate at which growth of transgenic plants was slightly affected [7]: 6 ×
